The values below are quoted from earlier work in patent publication US9326457B2, “Micro layering pest control solution” (DAIRY SOLUTIONS, INC, priority 2013, dated 2016).

The conditions of the data set: natural pyrethrum, degrades very quickly; short duration application.

With Pyrethrin, the half life entry is listed as “about 30 mins”.
